# pIC50: −log10 of the molar value.
# Molecular target: Neuraminidase (Influenza A virus (strain A/USSR/90/1977 H1N1), UniProt P03469, H274Y)
# Assay: Inhibition of Influenza A virus (A/California/04/2009 (H1N1)) Neuraminidase H274Y mutant using MUNANA as substrate preincubated for 5 to 15 mins followed by substrate addition and measured after 30 mins by fluorescence spectrophotometric method
row,Compound,pIC50
1,CCC(CC)O[C@@H]1C=C(C(=O)O)C[C@H](NC(N)=O)[C@H]1NC(C)=O,6.18
2,CCC(CC)O[C@@H]1C=C(C(=O)O)C[C@H](NC(=O)NNC)[C@H]1NC(C)=O,6.93
3,CCCCNNC(=O)N[C@H]1CC(C(=O)O)=C[C@@H](OC(CC)CC)[C@@H]1NC(C)=O,6.83
4,CCC(CC)O[C@@H]1C=C(C(=O)O)C[C@H](NC(=O)NN)[C@H]1NC(C)=O,6.88
5,CCCNNC(=O)N[C@H]1CC(C(=O)O)=C[C@@H](OC(CC)CC)[C@@H]1NC(C)=O,6.42

# Source: ChEMBL document CHEMBL4837229 (Eur J Med Chem, 2021)
